As a reminder, the IC50 is the concentration that inhibits the measured activity by half.

Experiment [1] is described as follows: 3-HIB assay in vitro, direct MS assay of conditioned media. The class given is cell-based, human. The conditions noted are these: GM00371 cells, read-out: 3HIB INHIBITION IC50 (μM) MEAN GM00371 cells Direct MS Assay.
Experiment [2] deals with GM00371 cells. Briefly: Viability assay (Cell titer glo) in the 3-HIB assay. The settings on record: read-out: 3HIB INHIBITION IC50 (μM) MEAN GM00371 cells Viablility Assay. The class given is cell-based, human. In a few lines:
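GM00371 cells (10,000/well, EMEM/15% FBS) were exposed for 24 h at 37 °C to compounds in 1:3 serial dilution from 30 μM top concentration in EMEM. Reference Compound B at 30 μM served as maximal-toxicity control. Viability read as CellTiter-Glo luminescence.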

Read-outs that look alike come from different tables or passages of the source.

With `CNC(=O)c1ccc2c(c1)nc(-c1ccccc1C#N)n2[C@H]1CCC[C@@H](NC(=O)c2ccc(C#N)s2)C1` [Compound 138], the IC50 in experiment [1] (Homo sapiens, 24 h) was not below 1 µM; in experiment [2] (Homo sapiens, 24 h) it was not below 1 µM.
For `CNC(=O)c1ccc2c(c1)nc(-c1ccccc1C=O)n2[C@H]1CCC[C@@H](NC(=O)c2ccc(Br)s2)C1` [Compound 161], the IC50 in experiment [1] (Homo sapiens, 24 h) lay in the range of 0.1 to 0.5 µM; in experiment [2] (Homo sapiens, 24 h) it was 0.1 to 0.5 µM.
Regarding `CNC(=O)c1ccc2c(c1)nc(-c1ccccc1C)n2[C@H]1CCC[C@@H](NC(=O)c2ccc(Br)s2)C1` [Compound 135], the IC50 lay in the range of 0.1 to 0.5 µM in experiment [1] (Homo sapiens, 24 h) and 0.5 to 1 µM in experiment [2] (Homo sapiens, 24 h).
On to `CNC(=O)c1ccc2c(c1)nc(-c1ccccc1F)n2[C@H]1CCC[C@@H](NC(=O)c2ccc(Br)s2)C1` [Compound 145], for which the IC50 in experiment [1] (Homo sapiens, 24 h) is less than 0.1 µM; in experiment [2] (Homo sapiens, 24 h), 0.1 to 0.5 µM.
`CNC(=O)c1cc2nc(-c3ccccc3F)n([C@H]3CCC[C@@H](NC(=O)c4ccc(Br)s4)C3)c2cc1F` [Compound 207]: the IC50 was less than 0.1 µM in experiment [1] (Homo sapiens, 24 h) and 0.1 to 0.5 µM in experiment [2] (Homo sapiens, 24 h).
Taken in the same sequence, the figures for `CNC(=O)c1ccc2c(c1)nc(-c1ccccc1C#N)n2[C@H]1CCC[C@@H](NC(=O)c2ccc(Br)s2)C1` [Compound 136] were less than 0.1 µM and less than 0.1 µM.
`COC(=O)c1cc2nc(-c3ccccn3)n([C@@H]3CCC[C@H](NC(=O)c4ccc(Br)s4)C3)c2cn1` [Compound 291]: the IC50 in experiment [1] (Homo sapiens, 24 h) lay in the range of 0.1 to 0.5 µM; in experiment [2] (Homo sapiens, 24 h) it was 0.1 to 0.5 µM.
For the compound `CNC(=O)c1ccc2c(c1)nc(-c1cccc(F)c1O)n2[C@H]1CCC[C@@H](NC(=O)c2ccc(Br)s2)C1` [Compound 163], the IC50 in experiment [1] (Homo sapiens, 24 h) was in the range of 0.1 to 0.5 µM; in experiment [2] (Homo sapiens, 24 h) it was 0.1 to 0.5 µM.
As to `COC(=O)c1ccc2c(c1)nc(-c1ccccn1)n2[C@@H]1CCC[C@H](NC(=O)c2ccc(Br)s2)C1` [Compound 109], the IC50 lay within 0.1 to 0.5 µM in experiment [1] (Homo sapiens, 24 h) and 0.1 to 0.5 µM in experiment [2] (Homo sapiens, 24 h).
As for `C#Cc1ccccc1-c1nc2cc(C(=O)NC)ccc2n1[C@H]1CCC[C@@H](NC(=O)c2ccc(Br)s2)C1` [Compound 151], the IC50 is less than 0.1 µM in experiment [1] (Homo sapiens, 24 h) and 0.1 to 0.5 µM in experiment [2] (Homo sapiens, 24 h).
Take `CNC(=O)c1cc2nc(-c3ccccc3C#N)n([C@H]3CCC[C@@H](NC(=O)c4ccc(Br)s4)C3)c2cc1F` [Compound 157]: the IC50 in experiment [1] (Homo sapiens, 24 h) was less than 0.1 µM; in experiment [2] (Homo sapiens, 24 h), less than 0.1 µM.
For the compound `CNC(=O)c1ccc2c(c1)nc(-c1ccccc1C)n2[C@H]1CCC[C@@H](NC(=O)c2ccc(C#N)s2)C1` [Compound 134], the IC50 in experiment [1] (Homo sapiens, 24 h) was 0.5 to 1 µM; in experiment [2] (Homo sapiens, 24 h), not below 1 µM.
The like results for `CNC(=O)c1cc2nc(-c3ccccn3)n([C@H]3CCC[C@@H](NC(=O)c4ccc(Br)s4)C3)c2cn1` [Compound 292] were, in that order, 0.1 to 0.5 µM and 0.1 to 0.5 µM.
`CNC(=O)c1ccc2c(c1)nc(-c1c(O)cccc1F)n2[C@H]1CCC[C@@H](NC(=O)c2ccc(Br)s2)C1` [Compound 184]: the IC50 in experiment [1] (Homo sapiens, 24 h) fell in the range of 0.1 to 0.5 µM; in experiment [2] (Homo sapiens, 24 h), 0.1 to 0.5 µM.
Regarding `CNC(=O)c1ccc2c(c1)nc(-c1ccccc1C#N)n2[C@H]1CCC[C@@H](NC(=O)c2ccc(Br)s2)C1` [Compound 137], the IC50 in experiment [1] (24 hours) and in experiment [2] (24 hours) was 0.1 to 0.5 µM each time.
`CNC(=O)c1ccc2c(c1)nc(-c1ccccc1C#N)n2[C@H]1CCC[C@@H](NC(=O)c2ccc(C#N)s2)C1` [Compound 139]: the IC50 in experiment [1] (24 hours) and in experiment [2] (24 hours) was not below 1 µM each time.
Turning to `CNC(=O)c1ccc2c(c1)nc(-c1ccccn1)n2[C@@H]1CCC[C@H](NC(=O)c2ccc(C#N)s2)C1` [Compound 112], the IC50 in experiment [1] (Homo sapiens, 24 h) was 0.5 to 1 µM; in experiment [2] (Homo sapiens, 24 h) it was not below 1 µM.
Consider `CNC(=O)c1cc2nc(-c3ccccn3)n([C@H]3CCC[C@@H](NC(=O)c4ccc(Br)s4)C3)c2cc1F` [Compound 155], for which the IC50 in experiment [1] (Homo sapiens, 24 h) is 0.5 to 1 µM; in experiment [2] (Homo sapiens, 24 h) it was 0.5 to 1 µM.
As to `CNC(=O)c1ccc2c(c1)nc(-c1cccc(F)c1)n2[C@H]1CCC[C@@H](NC(=O)c2ccc(Br)s2)C1` [Compound 154], the IC50 in experiment [1] (Homo sapiens, 24 h) is less than 0.1 µM; in experiment [2] (Homo sapiens, 24 h) it was 0.1 to 0.5 µM.
The like results for `CNC(=O)c1cc2nc(-c3ccccc3C)n([C@H]3CCC[C@@H](NC(=O)c4ccc(Br)s4)C3)c2cc1F` [Compound 208] were, in that order, not below 1 µM and 0.1 to 0.5 µM.
